Experimental data reported in patent publication US10988523B2, “Modified lipidated Relaxin B chain peptides and their therapeutic use” (Sanofi, priority 2018, dated 2021).
*1 amine or outer side, *2 acyl side, *3 side chain or, on linkers, in order; H or OH if unused. Where a SMILES comes first, the peptide text is derived from it. Side-chain parts run from the residue outwards. [ ]: non-standard residue; d: D form. The star is where a group is joined. γGlu = O=C(O)[C@H](CCC(=O)[*:2])N[*:1]; Stearoyl = CCCCCCCCCCCCCCCCCC(=O)*; Palmitoyl = CCCCCCCCCCCCCCCC(=O)*; Nle = CCCC[C@H](N)C(=O)O; AEEA = NCCOCCOCC(=O)O; Aib = CC(C)(N)C(=O)O

Biological target: T1, RXFP1 (Homo sapiens, UniProt Q9HBX9)
T1 construct: OVCAR5 cells expressing endogenous RXFP1; endogenous in cells; host or cells: OVCAR5 cells
T1 sequence (Q9HBX9 1-757): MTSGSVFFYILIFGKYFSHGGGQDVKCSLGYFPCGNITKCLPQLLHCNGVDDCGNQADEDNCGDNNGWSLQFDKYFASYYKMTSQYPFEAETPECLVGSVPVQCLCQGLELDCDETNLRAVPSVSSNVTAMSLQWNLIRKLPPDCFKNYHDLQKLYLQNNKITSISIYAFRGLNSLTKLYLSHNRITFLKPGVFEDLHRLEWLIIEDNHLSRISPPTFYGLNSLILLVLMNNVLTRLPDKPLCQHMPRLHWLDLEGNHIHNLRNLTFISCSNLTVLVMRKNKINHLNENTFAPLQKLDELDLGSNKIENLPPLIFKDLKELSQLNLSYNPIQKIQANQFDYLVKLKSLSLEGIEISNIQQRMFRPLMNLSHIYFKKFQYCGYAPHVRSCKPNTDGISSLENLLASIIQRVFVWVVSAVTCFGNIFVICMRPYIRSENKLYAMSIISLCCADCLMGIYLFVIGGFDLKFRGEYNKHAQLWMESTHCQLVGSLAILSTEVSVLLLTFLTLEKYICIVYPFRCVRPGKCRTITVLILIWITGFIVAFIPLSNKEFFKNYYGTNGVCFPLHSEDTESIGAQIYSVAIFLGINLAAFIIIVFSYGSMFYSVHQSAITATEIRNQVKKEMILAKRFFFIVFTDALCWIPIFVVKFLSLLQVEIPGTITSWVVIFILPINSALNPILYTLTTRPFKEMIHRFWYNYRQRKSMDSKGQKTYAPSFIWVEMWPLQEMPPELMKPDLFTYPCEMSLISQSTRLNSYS
Assay: OVCAR5 cAMP assay (HTRF), RXFP1 agonist activity
Format: cell-based
Details: for EC50: OVCAR5 cells, cAMP HTRF, read-out: EC50 (nM), OVCAR 5 cells (cAMP); for Emax: OVCAR-5, maximal cAMP relative to H2-relaxin maximum (100%), read-out: EMax, OVCAR 5 cells (cAMP)
How it was run: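 OVCAR5 cells (endogenous RXFP1) pretreated 40 min at 37° C with 1 mM IBMX, then exposed to peptides in serum-free medium for 30 min at 37° C. Lysate cAMP read by HTRF; EC50 from variable-slope sigmoidal fit; Emax as % of H2-relaxin maximal cAMP in same run.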

Structure (SMILES) | EC50 [nM] | Emax [%]
CCCCCCCCCCCCCCCCCC(=O)N[C@@H](CCC(=O)NCCOCCOCC(=O)NCCOCCOCC(=O)NCCOCCOCC(=O)N[C@@H](CCC(=O)N[C@@H](CCC(=O)NCCCC[C@H](NC(=O)[C@H](CCCCN)NC(=O)[C@H](CCCCN)NC(=O)[C@H](CCCNC(=N)N)NC(=O)C(C)(C)NC(=O)[C@H](CO)NC(=O)[C@H](Cc1c[nH]c2ccccc12)NC(=O)[C@@H](NC(=O)[C@H](CO)NC(=O)[C@H](CCCC)NC(=O)CNC(=O)[C@H](CCC(=O)O)NC(=O)C(C)(C)NC(=O)C(C)(C)NC(=O)[C@@H](NC(=O)[C@H](CCC(N)=O)NC(=O)[C@H](C)NC(=O)[C@H](CCCNC(=N)N)NC(=O)[C@@H](NC(=O)[C@H](CCCCN)NC(=O)[C@H](CCC(=O)O)NC(=O)[C@H](CCCNC(=N)N)NC(=O)CNC(=O)[C@H](CCC(=O)O)NC(=O)[C@H](CC(C)C)NC(C)=O)C(C)C)[C@@H](C)CC)[C@@H](C)O)C(N)=O)C(=O)O)C(=O)O)C(=O)O [compound 106] (Ac-LEGREKVRAQI[Aib][Aib]EG[Nle]STWS[Aib]RKKK([γGlu-γGlu-AEEA-AEEA-AEEA-γGlu-Stearoyl])-NH2) |  | 93
CCCCCCCCCCCCCCCC(=O)N[C@@H](CCC(=O)N[C@@H](CCC(=O)N[C@@H](CCC(=O)NCCCC[C@H](NC(=O)COCCOCCNC(=O)COCCOCCNC(=O)COCCOCCNC(=O)[C@H](CCCCNC(C)=O)NC(=O)[C@H](CCCCN)NC(=O)[C@H](CCCNC(=N)N)NC(=O)C(C)(C)NC(=O)[C@H](CO)NC(=O)[C@H](Cc1c[nH]c2ccccc12)NC(=O)[C@@H](NC(=O)[C@H](CO)NC(=O)[C@H](CCCC)NC(=O)CNC(=O)[C@H](CCC(=O)O)NC(=O)C(C)(C)NC(=O)C(C)(C)NC(=O)[C@@H](NC(=O)[C@H](CCCCNC(C)=O)NC(=O)[C@H](C)NC(=O)[C@H](CCCNC(=N)N)NC(=O)[C@@H](NC(=O)[C@H](CCCCN)NC(=O)[C@H](CCC(=O)O)NC(=O)[C@H](CCCNC(=N)N)NC(=O)CNC(=O)[C@H](CCC(=O)O)NC(=O)[C@H](CC(C)C)NC(C)=O)C(C)C)[C@@H](C)CC)[C@@H](C)O)C(N)=O)C(=O)O)C(=O)O)C(=O)O [compound 114] (Ac-LEGREKVRAK(Ac)I[Aib][Aib]EG[Nle]STWS[Aib]RKK(Ac)[AEEA][AEEA][AEEA]K([γGlu-γGlu-γGlu-Palmitoyl])-NH2) |  | 90
CCCCCCCCCCCCCCCCCC(=O)N[C@@H](CCC(=O)N[C@@H](CCC(=O)N[C@@H](CCC(=O)N[C@@H](CCC(=O)NCCOCCOCC(=O)NCCOCCOCC(=O)NCCOCCOCC(=O)NCCCC[C@H](NC(=O)[C@H](CCCCN)NC(=O)[C@H](CCCCN)NC(=O)[C@H](CCCNC(=N)N)NC(=O)C(C)(C)NC(=O)[C@H](CO)NC(=O)[C@H](Cc1c[nH]c2ccccc12)NC(=O)[C@@H](NC(=O)[C@H](CO)NC(=O)[C@H](CCC(N)=O)NC(=O)CNC(=O)[C@H](CCC(=O)O)NC(=O)C(C)(C)NC(=O)C(C)(C)NC(=O)[C@@H](NC(=O)[C@H](CCCCNC(C)=O)NC(=O)[C@H](C)NC(=O)[C@H](CCCNC(=N)N)NC(=O)[C@@H](NC(=O)[C@H](CCCCN)NC(=O)[C@H](CCC(=O)O)NC(=O)[C@H](CCCNC(=N)N)NC(=O)CNC(=O)[C@H](CCC(=O)O)NC(=O)[C@H](CC(C)C)NC(C)=O)C(C)C)[C@@H](C)CC)[C@@H](C)O)C(N)=O)C(=O)O)C(=O)O)C(=O)O)C(=O)O [compound 115] (Ac-LEGREKVRAK(Ac)I[Aib][Aib]EGQSTWS[Aib]RKKK([AEEA-AEEA-AEEA-γGlu-γGlu-γGlu-γGlu-Stearoyl])-NH2) | 0.17 | 93

Now from value to compound:

EC50 [nM] | Emax [%] | Structure (SMILES)
0.03 | 88 | CCCCCCCCCCCCCCCCCC(=O)N[C@@H](CCC(=O)NCCOCCOCC(=O)NCCOCCOCC(=O)N[C@@H](CCC(=O)N[C@@H](CCC(=O)NCCCC[C@H](NC(=O)[C@H](CCCCN)NC(=O)[C@H](CCCCN)NC(=O)[C@H](CCCNC(=N)N)NC(=O)C(C)(C)NC(=O)[C@H](CO)NC(=O)[C@H](Cc1c[nH]c2ccccc12)NC(=O)[C@@H](NC(=O)[C@H](CO)NC(=O)[C@H](CCCC)NC(=O)CNC(=O)[C@H](CCC(=O)O)NC(=O)C(C)(C)NC(=O)C(C)(C)NC(=O)[C@@H](NC(=O)[C@H](CCC(N)=O)NC(=O)[C@H](C)NC(=O)[C@H](CCCNC(=N)N)NC(=O)[C@@H](NC(=O)[C@H](CCCCN)NC(=O)[C@H](CCC(=O)O)NC(=O)[C@H](CCCNC(=N)N)NC(=O)CNC(=O)[C@H](CCC(=O)O)NC(=O)[C@H](CC(C)C)NC(C)=O)C(C)C)[C@@H](C)CC)[C@@H](C)O)C(N)=O)C(=O)O)C(=O)O)C(=O)O [compound 105] (Ac-LEGREKVRAQI[Aib][Aib]EG[Nle]STWS[Aib]RKKK([γGlu-γGlu-AEEA-AEEA-γGlu-Stearoyl])-NH2)
0.15 | 94 | CCCCCCCCCCCCCCCC(=O)N[C@@H](CCC(=O)NCCCC[C@H](NC(=O)CC[C@H](NC(=O)CC[C@H](NC(=O)CC[C@H](NC(=O)COCCOCCNC(=O)COCCOCCNC(=O)COCCOCCNC(=O)COCCOCCNC(=O)[C@H](CCCCN)NC(=O)[C@H](CCCCN)NC(=O)[C@H](CCCCN)NC(=O)[C@H](CCCNC(=N)N)NC(=O)C(C)(C)NC(=O)[C@H](CO)NC(=O)[C@H](Cc1c[nH]c2ccccc12)NC(=O)[C@@H](NC(=O)[C@H](CO)NC(=O)[C@H](CCCC)NC(=O)CNC(=O)[C@H](CCC(=O)O)NC(=O)C(C)(C)NC(=O)C(C)(C)NC(=O)[C@@H](NC(=O)[C@H](CCC(N)=O)NC(=O)[C@H](C)NC(=O)[C@H](CCCNC(=N)N)NC(=O)[C@@H](NC(=O)[C@H](CCCCN)NC(=O)[C@H](CCC(=O)O)NC(=O)[C@H](CCCNC(=N)N)NC(=O)CNC(=O)[C@H](CCC(=O)O)NC(=O)[C@H](CC(C)C)NC(C)=O)C(C)C)[C@@H](C)CC)[C@@H](C)O)C(=O)O)C(=O)O)C(=O)O)C(N)=O)C(=O)O [compound 108] (Ac-LEGREKVRAQI[Aib][Aib]EG[Nle]STWS[Aib]RKKK[AEEA][AEEA][AEEA][AEEA][γGlu][γGlu][γGlu]K([γGlu-Palmitoyl])-NH2)
0.21 | 92 | CCCCCCCCCCCCCCCCCC(=O)N[C@@H](CCC(=O)N[C@@H](CCC(=O)N[C@@H](CCC(=O)N[C@@H](CCC(=O)N[C@@H](CCC(=O)NCCOCCOCC(=O)NCCOCCOCC(=O)NCCOCCOCC(=O)NCCCC[C@H](NC(=O)[C@H](CCCCN)NC(=O)[C@H](CCCCN)NC(=O)[C@H](CCCNC(=N)N)NC(=O)C(C)(C)NC(=O)[C@H](CO)NC(=O)[C@H](Cc1c[nH]c2ccccc12)NC(=O)[C@@H](NC(=O)[C@H](CO)NC(=O)[C@H](CCC(N)=O)NC(=O)CNC(=O)[C@H](CCC(=O)O)NC(=O)C(C)(C)NC(=O)C(C)(C)NC(=O)[C@@H](NC(=O)[C@H](CCCCNC(C)=O)NC(=O)[C@H](C)NC(=O)[C@H](CCCNC(=N)N)NC(=O)[C@@H](NC(=O)[C@H](CCCCN)NC(=O)[C@H](CCC(=O)O)NC(=O)[C@H](CCCNC(=N)N)NC(=O)CNC(=O)[C@H](CCC(=O)O)NC(=O)[C@H](CC(C)C)NC(C)=O)C(C)C)[C@@H](C)CC)[C@@H](C)O)C(N)=O)C(=O)O)C(=O)O)C(=O)O)C(=O)O)C(=O)O [compound 111] (Ac-LEGREKVRAK(Ac)I[Aib][Aib]EGQSTWS[Aib]RKKK([AEEA-AEEA-AEEA-γGlu-γGlu-γGlu-γGlu-γGlu-Stearoyl])-NH2)
 | 89 | CCCCCCCCCCCCCCCCCC(=O)N[C@@H](CCC(=O)N[C@@H](CCC(=O)N[C@@H](CCC(=O)NCCOCCOCC(=O)NCCOCCOCC(=O)NCCOCCOCC(=O)NCCCC[C@H](NC(=O)[C@H](CCCCNC(C)=O)NC(=O)[C@H](CCCCN)NC(=O)[C@H](CCCNC(=N)N)NC(=O)C(C)(C)NC(=O)[C@H](CO)NC(=O)[C@H](Cc1c[nH]c2ccccc12)NC(=O)[C@@H](NC(=O)[C@H](CO)NC(=O)[C@H](CCC(N)=O)NC(=O)CNC(=O)[C@H](CCC(=O)O)NC(=O)C(C)(C)NC(=O)C(C)(C)NC(=O)[C@@H](NC(=O)[C@H](CCCCNC(C)=O)NC(=O)[C@H](C)NC(=O)[C@H](CCCNC(=N)N)NC(=O)[C@@H](NC(=O)[C@H](CCCCN)NC(=O)[C@H](CCC(=O)O)NC(=O)[C@H](CCCNC(=N)N)NC(=O)CNC(=O)[C@H](CCC(=O)O)NC(=O)[C@H](CC(C)C)NC(C)=O)C(C)C)[C@@H](C)CC)[C@@H](C)O)C(N)=O)C(=O)O)C(=O)O)C(=O)O [compound 113] (Ac-LEGREKVRAK(Ac)I[Aib][Aib]EGQSTWS[Aib]RKK(Ac)K([AEEA-AEEA-AEEA-γGlu-γGlu-γGlu-Stearoyl])-NH2)
